Measurements as given in patent publication US20170369444A1, “INHIBITORS OF HISTONE DEMETHYLASES” (Gilead Sciences, Inc., priority 2014, published 2017).

Experiments:
Assay type in all cases: biochemical
KDM6A (UTX) = target: T1, KDM6A (UTX) (Homo sapiens, UniProt O15550); assay: Histone lysine demethylase AlphaLISA assay, KDM6A; settings: in vitro enzyme, read-out: KDM6A IC50 (HDME Inhibition)
T1 construct: 919-1401; host or cells: E. coli
Procedure: (§1) Histone lysine demethylase AlphaLISA assays are performed to determine IC50 values. […] Assays are performed analogously to the protocol described by PerkinElmer (Roy et al. PerkinElmer Technical Note: AlphaLISA #12, April 2011).
(§2) Assays are performed analogously to the protocol described by PerkinElmer (Roy et al. PerkinElmer Technical Note: AlphaLISA #12, April 2011).
(§3) Enzymes (final assay concentration 0.1-2.5 nM) are dissolved in enzyme buffer and incubated for 10 min before 5 μL is added to 5 μL 3% DMSO solutions of compounds in enzyme buffer, incubated for another 10 minutes, before 5 μL substrate solution is added and the reaction mixture is incubated at room temperature. 10 μL acceptor beads, suspended Epigenetic Buffer (Perkin Elmer AL008) from stock, are added and the suspension is incubated in the dark at room temperature, before 10 μL suspension of streptavidin donor beads (Perkin Elmer 6760002) in Epigenetic Buffer is added. After incubation at room temperature in the dark the plates are read.
(§4) Substrate solution: Substrate (final assay concentration 50-200 nM), 50 mM Hepes (pH 7.4-8.0), 0.003% Tween-20, 0.1% BS, 25 μM L-Asc, 10 μM α-KG. Enzyme Buffer: 50 mM Hepes (pH 7.4-8.0), 0.003% Tween-20, 0.1% BSA; 5 μM (NH4)2Fe(SO4)2

PHF8 (KDM7) = PHF8 (KDM7) (Homo sapiens, UniProt Q9UPP1); assay: Histone lysine demethylase AlphaLISA assay, PHF8; settings: in vitro enzyme, read-out: PHF8 IC50 (HDME Inhibition)
Sequence of PHF8 (KDM7) (Q9UPP1 whole entry): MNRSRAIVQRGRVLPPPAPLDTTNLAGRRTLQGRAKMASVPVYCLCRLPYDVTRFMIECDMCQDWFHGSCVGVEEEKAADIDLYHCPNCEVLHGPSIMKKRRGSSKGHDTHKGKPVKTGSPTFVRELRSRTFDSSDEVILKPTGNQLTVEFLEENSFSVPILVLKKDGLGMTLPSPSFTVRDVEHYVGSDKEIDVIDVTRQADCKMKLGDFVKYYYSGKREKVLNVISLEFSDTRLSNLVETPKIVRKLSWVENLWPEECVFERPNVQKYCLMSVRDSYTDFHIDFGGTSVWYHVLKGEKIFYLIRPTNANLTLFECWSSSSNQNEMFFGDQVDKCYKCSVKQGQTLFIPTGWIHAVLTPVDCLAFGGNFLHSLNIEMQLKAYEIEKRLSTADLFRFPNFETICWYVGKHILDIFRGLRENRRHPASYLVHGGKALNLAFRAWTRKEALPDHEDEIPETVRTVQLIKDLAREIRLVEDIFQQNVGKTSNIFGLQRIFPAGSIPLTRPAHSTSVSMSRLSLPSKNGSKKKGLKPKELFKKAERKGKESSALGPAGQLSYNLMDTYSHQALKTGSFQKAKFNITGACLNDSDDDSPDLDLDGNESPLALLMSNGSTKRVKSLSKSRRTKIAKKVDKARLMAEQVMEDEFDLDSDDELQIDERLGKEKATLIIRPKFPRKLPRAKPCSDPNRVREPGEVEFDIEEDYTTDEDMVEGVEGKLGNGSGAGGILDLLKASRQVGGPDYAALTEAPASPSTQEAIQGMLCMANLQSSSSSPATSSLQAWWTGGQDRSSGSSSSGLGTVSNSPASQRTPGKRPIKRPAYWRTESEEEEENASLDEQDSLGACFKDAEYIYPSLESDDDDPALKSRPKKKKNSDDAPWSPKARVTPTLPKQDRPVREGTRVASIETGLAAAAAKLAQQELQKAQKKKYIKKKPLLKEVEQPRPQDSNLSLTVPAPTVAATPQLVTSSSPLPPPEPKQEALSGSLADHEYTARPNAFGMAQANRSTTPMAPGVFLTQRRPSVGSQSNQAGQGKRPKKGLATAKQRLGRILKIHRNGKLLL
Procedure: as §1, §2, §3, §4

KDM2B (FBXL10) = target: T2, KDM2B (FBXL10) (Homo sapiens, UniProt Q8NHM5); assay: Histone lysine demethylase AlphaLISA assay, KDM2B; settings: in vitro enzyme, read-out: KDM2B IC50 (HDME Inhibition)
T2 construct: 1-650; purchased BPS Bioscience, US; host or cells: Bac (baculovirus/insect cells)
T2 sequence (Q8NHM5 1-650): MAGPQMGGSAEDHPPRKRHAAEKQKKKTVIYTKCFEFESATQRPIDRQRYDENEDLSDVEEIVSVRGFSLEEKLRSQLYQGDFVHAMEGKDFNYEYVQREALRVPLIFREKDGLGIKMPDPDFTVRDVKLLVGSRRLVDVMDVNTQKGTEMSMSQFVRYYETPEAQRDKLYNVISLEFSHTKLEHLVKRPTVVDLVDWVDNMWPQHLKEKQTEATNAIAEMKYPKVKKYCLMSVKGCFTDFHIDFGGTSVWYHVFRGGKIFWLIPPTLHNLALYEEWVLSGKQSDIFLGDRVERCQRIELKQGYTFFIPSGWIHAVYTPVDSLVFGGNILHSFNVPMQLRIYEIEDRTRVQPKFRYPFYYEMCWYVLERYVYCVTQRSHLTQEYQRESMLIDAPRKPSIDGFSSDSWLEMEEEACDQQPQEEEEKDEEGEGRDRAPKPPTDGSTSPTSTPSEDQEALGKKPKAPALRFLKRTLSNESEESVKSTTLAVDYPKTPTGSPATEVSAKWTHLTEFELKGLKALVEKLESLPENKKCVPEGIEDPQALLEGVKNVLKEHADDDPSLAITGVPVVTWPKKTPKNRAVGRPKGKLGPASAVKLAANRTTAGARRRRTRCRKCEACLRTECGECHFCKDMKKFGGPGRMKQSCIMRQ
Procedure: as §1, §2, §3, §4

KDM5B (PLU-1) = target: T3, KDM5B (PLU-1) (Homo sapiens, UniProt Q9UGL1); assay: Histone lysine demethylase AlphaLISA assay, KDM5B; settings: in vitro enzyme, read-out: KDM5B IC50 (HDME Inhibition)
T3 construct: 1-809; host or cells: E. coli
T3 sequence (Q9UGL1 1-809): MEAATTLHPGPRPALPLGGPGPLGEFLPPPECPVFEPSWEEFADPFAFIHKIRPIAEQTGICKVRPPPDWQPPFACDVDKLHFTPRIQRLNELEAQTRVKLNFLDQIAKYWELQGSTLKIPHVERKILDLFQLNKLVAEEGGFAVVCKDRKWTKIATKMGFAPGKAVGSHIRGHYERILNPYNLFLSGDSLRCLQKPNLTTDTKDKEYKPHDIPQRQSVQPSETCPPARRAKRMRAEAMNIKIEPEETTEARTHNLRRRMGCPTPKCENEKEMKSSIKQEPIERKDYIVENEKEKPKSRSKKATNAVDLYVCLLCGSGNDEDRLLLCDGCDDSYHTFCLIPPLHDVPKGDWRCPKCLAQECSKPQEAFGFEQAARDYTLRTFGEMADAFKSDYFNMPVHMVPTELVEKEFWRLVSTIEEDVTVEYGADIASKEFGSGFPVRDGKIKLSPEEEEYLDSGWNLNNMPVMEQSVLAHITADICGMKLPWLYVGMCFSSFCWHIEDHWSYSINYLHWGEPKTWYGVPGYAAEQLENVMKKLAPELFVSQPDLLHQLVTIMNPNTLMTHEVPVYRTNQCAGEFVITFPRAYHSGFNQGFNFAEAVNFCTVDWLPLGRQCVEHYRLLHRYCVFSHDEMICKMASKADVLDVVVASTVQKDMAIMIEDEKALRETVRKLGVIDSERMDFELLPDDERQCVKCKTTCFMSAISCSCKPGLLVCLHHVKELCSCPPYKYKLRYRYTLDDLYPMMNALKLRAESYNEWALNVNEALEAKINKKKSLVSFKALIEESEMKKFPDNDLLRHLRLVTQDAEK
Procedure: as §1, §2, §3, §4

KDM4C (JMJD2C) = target: T4, KDM4C (JMJD2C) (Homo sapiens, UniProt Q9H3R0); assay: Histone lysine demethylase AlphaLISA assay, KDM4C; settings: in vitro enzyme, read-out: KDM4C IC50 (HDME Inhibition)
T4 construct: 1-349; host or cells: E. coli
T4 sequence (Q9H3R0 1-349): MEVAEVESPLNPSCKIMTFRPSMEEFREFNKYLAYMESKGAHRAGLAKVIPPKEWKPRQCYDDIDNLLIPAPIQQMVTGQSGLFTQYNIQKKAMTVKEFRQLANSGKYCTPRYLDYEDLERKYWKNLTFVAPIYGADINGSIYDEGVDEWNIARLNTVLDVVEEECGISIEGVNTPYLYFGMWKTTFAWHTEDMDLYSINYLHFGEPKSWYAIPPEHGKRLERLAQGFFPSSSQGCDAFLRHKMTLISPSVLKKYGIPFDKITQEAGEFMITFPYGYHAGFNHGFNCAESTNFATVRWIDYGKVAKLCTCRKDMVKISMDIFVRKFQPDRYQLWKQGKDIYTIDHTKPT
Procedure: as §1, §2, §3, §4

T1 sequence (O15550 919-1401): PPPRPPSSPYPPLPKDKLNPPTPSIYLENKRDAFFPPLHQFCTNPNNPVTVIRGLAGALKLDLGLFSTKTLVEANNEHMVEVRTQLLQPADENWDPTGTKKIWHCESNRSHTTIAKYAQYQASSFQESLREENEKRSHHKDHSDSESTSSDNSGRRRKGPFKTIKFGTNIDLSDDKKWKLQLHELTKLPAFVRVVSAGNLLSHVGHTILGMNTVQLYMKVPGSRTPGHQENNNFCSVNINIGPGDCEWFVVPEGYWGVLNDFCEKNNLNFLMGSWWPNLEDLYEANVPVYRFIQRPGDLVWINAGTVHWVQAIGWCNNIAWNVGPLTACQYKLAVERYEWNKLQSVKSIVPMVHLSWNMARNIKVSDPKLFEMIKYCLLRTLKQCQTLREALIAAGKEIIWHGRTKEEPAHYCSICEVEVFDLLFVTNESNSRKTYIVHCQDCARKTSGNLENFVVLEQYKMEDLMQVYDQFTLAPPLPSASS

IC50 (KDM6A (UTX)) [nM]	IC50 (PHF8 (KDM7)) [nM]	IC50 (KDM2B (FBXL10)) [nM]	IC50 (KDM5B (PLU-1)) [nM]	IC50 (KDM4C (JMJD2C)) [nM]	Structure (SMILES)
> 2500	250 to 2500	250 to 2500	–	–	CC(N[C@@H](C)C(=O)NCc1ccccc1O)c1cc(C(=O)O)ccn1 (stereo partly drawn) [Compound 6, 2-(1-{[(1S)-1-{[(2-hydroxyphenyl)methyl]carbamoyl}ethyl]amino}ethyl)pyridine-4-carboxylic acid]
> 2500	250 to 2500	250 to 2500	–	–	CC(C)C[C@H](NCc1cc(C(=O)O)ccn1)C(=O)NCc1ccccc1NC(=O)C1CC1C (stereo partly drawn) [Compound 7, 2-({[(1S)-3-methyl-1-({[2-(2-methylcyclopropane-amido)phenyl]methyl}carbamoyl)butyl]amino}methyl)pyridine-4-carboxylic acid]
> 2500	250 to 2500	250 to 2500	–	–	CC(N[C@@H](C)C(=O)NCc1ccccc1CO)c1cc(C(=O)O)ccn1 (stereo partly drawn) [Compound 19, 2-(1-{[(1S)-1-({[2-(hydroxymethyl)phenyl]methyl}carbamoyl)ethyl]amino}ethyl) pyridine-4-carboxylic acid]
> 2500	250 to 2500	250 to 2500	–	–	CC(N[C@@H](C)c1nccs1)c1cc(C(=O)O)ccn1 (stereo partly drawn) [Compound 28, 2-(1-{[(1S)-1-(1,3-thiazol-2-yl)ethyl]amino}ethyl) pyridine-4-carboxylic acid]
> 2500	250 to 2500	250 to 2500	–	–	CC(N[C@@H](C)C(=O)NCc1ccccc1)c1cc(C(=O)O)ccn1 (stereo partly drawn) [Compound 36, 2-(1-{[(1S)-1-(benzylcarbamoyl)ethyl]amino}ethyl)pyridine-4-carboxylic acid]
> 2500	250 to 2500	250 to 2500	–	–	CC(C)C[C@H](NCc1cc(C(=O)O)ccn1)C(=O)NCC1CCS(=O)(=O)C1 (stereo partly drawn) [Compound 38, 2-({[(1S)-1-{[(1,1-dioxo-1-thiolan-3-yl)methyl]carbamoyl}-3-methylbutyl]amino}methyl)pyridine-4-carboxylic acid]
–	–	–	< 250	< 250	CC(C)C[C@@H](CO)NCc1cc(C(=O)O)ccn1 [Compound 61, (S)-2-{[(1-hydroxy-4-methylpentan-2-yl)amino]methyl}pyri-dine-4-carboxylic acid]
–	–	–	> 2500	> 2500	O=C(O)c1ccnc(CN2CCCC(c3ccccc3)C2CO)c1 (stereo not drawn) [Compound 63, 2-{[2-(hydroxymethyl)-3-phenylpiperidin-1-yl]methyl}pyridine-4-carboxylic acid]
> 2500	< 250	250 to 2500	< 250	–	CC(C)(C)c1nc2ccccn2c1CNCc1cc(C(=O)O)ccn1 [Compound 88, 2-{[({2-tert-butylimidazo[1,2-a]pyridin-3-yl}methyl)amino]methyl}pyridine-4-carboxylic acid]

More lines, now with the values behind:

Structure (SMILES)	IC50 (KDM6A (UTX)) [nM]	IC50 (PHF8 (KDM7)) [nM]	IC50 (KDM2B (FBXL10)) [nM]	IC50 (KDM5B (PLU-1)) [nM]	IC50 (KDM4C (JMJD2C)) [nM]
CCN(CC)C(=O)CCN(CCNC(C)=O)Cc1cc(C(=O)O)ccn1 [Compound 27, 2-({[2-(diethylcarbamoyl)ethyl](2-acetamidoethyl)amino}methyl)pyridine-4-carboxylic acid]	> 2500	250 to 2500	250 to 2500	250 to 2500	–
CSCC[C@H](NCc1cc(C(=O)O)ccn1)C(=O)OC(C)(C)C [Compound 49, 2-({[(2S)-1-(tert-butoxy)-4-(methylsulfanyl)-1-oxobutan-2-yl]amino}methyl)pyri-dine-4-carboxylic acid]	> 2500	250 to 2500	250 to 2500	–	–
CC(C)C[C@H](NCc1cc(C(=O)O)ccn1)C1CCCO1 (stereo partly drawn) [Compound 60, 2-({[(1S)-3-methyl-1-(oxolan-2-yl)butyl]amino}methyl) pyridine-4-carboxylic acid]	> 2500	–	> 2500	< 250	–
O=C(O)c1ccnc(CN2CCCC(C3CCCCC3)C2CO)c1 (stereo not drawn) [Compound 62, 2-{[3-cyclohexyl-2-(hydroxymethyl)piperidin-1-yl]methyl}pyridine-4-carboxylic acid]	–	–	–	250 to 2500	> 2500
CCNC(=O)C1CCN(Cc2cc(C(=O)O)ccn2)CC1 [Compound 75, 2-{[4-(ethylcarbamoyl)piper-idin-1-yl]methyl} pyridine-4-carboxylic acid]	> 2500	250 to 2500	250 to 2500	> 2500	–
COc1ccc([C@@H](C)N2CC[C@@H](CNCc3cc(C(=O)O)ccn3)C2=O)cc1 [Compound 78, 2-[({[(3S)-1-[(1R)-1-(4-methoxyphenyl)ethyl]-2-oxopyrrolidin-3-yl]methyl}amino)methyl]pyridine-4-carboxylic acid]	> 2500	< 250	< 250	–	–
O=C(O)c1ccnc(CNC2CCc3c(Br)ccnc32)c1 (stereo not drawn) [Compound 91, 2-[({4-bromo-5H,6H,7H-cyclopenta[b]pyridin-7-yl}amino)methyl]pyri-dine-4-carboxylic acid]	–	–	–	< 250	250 to 2500
O=C(O)c1ccnc(CNC2CCc3c(Cc4ccccc4)ccnc32)c1 (stereo not drawn) [Compound 92, 2-[({4-benzyl-5H,6H,7H-cyclopenta[b]pyridin-7-yl}amino)methyl]pyri-dine-4-carboxylic acid]	> 2500	250 to 2500	250 to 2500	< 250	–
CCN1CC[C@@H](CNCc2cc(C(=O)O)ccn2)C1=O [Compound 105, 2-[({[(3S)-1-ethyl-2-oxopyrrolidin-3-yl]methyl}amino)methyl]pyridine-4-carboxylic acid]	> 2500	< 250	< 250	–	–
CCN1CCC[C@H](CNCc2cc(C(=O)O)ccn2)C1=O [Compound 107, 2-[({[(3R)-1-ethyl-2-oxopiperidin-3-yl]methyl}amino)methyl]pyridine-4-carboxylic acid]	> 2500	–	< 250	< 250	–
